Results published in patent publication US20260061037A1, “BACILLUS SPECIES STRAIN EXPRESSING SUPEROXIDE DISMUTASE, BACILLUS SPECIES STRAIN SPORE AND/OR SUPEROXIDE DISMUTASE, AND USE THEREOF FOR PREVENTING OR TREATING OF FIBROTIC DISEASE” (HLB GENEX, INC., priority 2022, published 2026).

Columns and labels:
[1] = system: nonalcoholic steatohepatitis (NASH) STAM™ animal model; type: in vivo
Method: (§1) NASH was induced in all groups except the normal group of 8 mice as follows: On the second day after birth, the male mice were injected subcutaneously once with 200 μg streptozotocin (STZ, purchased from Sigma-Aldrich) solution. After the mice reached 4 weeks of age, a solid high-fat diet (HFD, 57 kcal % fat, purchased from CLEA Japan, Inc., Cat #HFD32) was placed on a metal lid on top of the cage so that the mice access it ad libitum, thereby inducing NASH
The GF427-administered groups were administered once a day at five dose levels: 0.05×10^7 (lowest dose), 0.1×10^7 (low dose), 0.5×10^7 (middle dose), 1×10^7 (high dose), and 5×10^7 CFU (highest dose) per mouse. The GF423-administered group was administered once a day at a dose of 1×10^7 CFU per mouse. GF103 was administered once a day at a dose of 10 U per mouse. Telmisartan was administered once a day at a dose of 10 mg/kg. GF427, GF423, and GF103 were administered orally in the form of a vehicle at a dose of 100 μL, and telmisartan was administered orally in the form of being supplemented with reverse osmosis water (RO water) at a dose of 10 mL/kg. The normal and disease control groups were not subjected to any treatment before sacrifice, and were sacrificed at 13 weeks of age by exsanguination via direct cardiac puncture under isoflurane (purchased from Pfizer Inc.) anesthesia. The animals were monitored daily for viability, clinical signs (lethargy, convulsion, respiratory distress), and behavior to observe whether there are any significant clinical signs of toxicity, coma, and death before and after administration of the test substance. […] All animal care and experiments were conducted in accordance with laws and regulations related to animal welfare and management.
At sacrifice of the mice, the whole liver was collected and washed with cold saline. Photographs of the individual whole liver (parietal side and visceral side) were taken. Then, the liver weight was measured and the liver-to-body weight ratio was calculated. […]

[2] = system: nonalcoholic steatohepatitis (NASH) STAM™ animal model; test: H&E staining of liver and NAFLD activity score in NASH STAM model; type: in vivo, C57BL/6J mice; conditions: PO, QD; GF423 1×10^7 CFU, GF103 10 U, telmisartan 10 mg/kg; vs disease control group
Method: as §1
(§2) The GF427-administered groups were administered once a day at five dose levels: 0.05×10^7 (lowest dose), 0.1×10^7 (low dose), 0.5×10^7 (middle dose), 1×10^7 (high dose), and 5×10^7 CFU (highest dose) per mouse. The GF423-administered group was administered once a day at a dose of 1×10^7 CFU per mouse. GF103 was administered once a day at a dose of 10 U per mouse. Telmisartan was administered once a day at a dose of 10 mg/kg. […] The animals were monitored daily for viability, clinical signs (lethargy, convulsion, respiratory distress), and behavior to observe whether there are any significant clinical signs of toxicity, coma, and death before and after administration of the test substance. […]
The paraffin block of liver tissue prepared in Example 7.3 was sectioned using a rotary microtome (purchased from Leica Microsystems). […] The tissue slides were subjected to H&E staining and evaluated by the investigator. […]

[3] = system: nonalcoholic steatohepatitis (NASH) STAM™ animal model; test: Plasma ALT level in NASH STAM model; type: in vivo, C57BL/6J mice; conditions: PO, QD; GF423 1×10^7 CFU, GF103 10 U, telmisartan 10 mg/kg; vs disease control group
Method: as §1, §2
Plasma ALT level was measured using FUJI DRI-CHEM 7000 (purchased from Fujifilm Corporation). […]

[4] = system: nonalcoholic steatohepatitis (NASH) STAM™ animal model; test: Sirius red staining of liver (fibrosis area) in NASH STAM model; type: in vivo, C57BL/6J mice; conditions: PO, QD; GF423 1×10^7 CFU, GF103 10 U, telmisartan 10 mg/kg; vs disease control group
Method: as §1
The GF427-administered groups were administered once a day at five dose levels: 0.05×10^7 (lowest dose), 0.1×10^7 (low dose), 0.5×10^7 (middle dose), 1×10^7 (high dose), and 5×10^7 CFU (highest dose) per mouse. The GF423-administered group was administered once a day at a dose of 1×10^7 CFU per mouse. […] The animals were monitored daily for viability, clinical signs (lethargy, convulsion, respiratory distress), and behavior to observe whether there are any significant clinical signs of toxicity, coma, and death before and after administration of the test substance. […]
For quantitative analysis of fibrosis area, bright field images of the Sirius red-stained section were captured around the central vein using a digital camera (DFC295, purchased from Leica) at 200-fold magnification, and the positive areas in 5 fields/section were measured using ImageJ software (National Institute of Health, USA). […]

[5] = system: nonalcoholic steatohepatitis (NASH) STAM™ animal model; type: in vivo; conditions: PO, QD, GF423 1×10^7 CFU, telmisartan 10 mg/kg
Method: C57BL/6J mice (14-day-pregnant female, 6-week-old male) (purchased from SLC, Japan) were maintained in a SPF facility with controlled temperature (23±3° C.), humidity (50±20%), lighting (12-hour artificial light/dark cycle; light cycle from 08:00 to 20:00), and air exchange.
NASH was induced in all groups except the normal group of 8 mice as follows: On the second day after birth, the male mice were injected subcutaneously once with 200 μg streptozotocin (STZ, purchased from Sigma-Aldrich) solution. […]
The 10-week-old mice with induced NASH were randomized to 9 groups, each containing 8 mice, based on their body weight on the day before the start of treatment. […] The NASH model mice were stratified by the body weight, and the standard deviation (SD) was calculated to minimize the difference in mean body weight between the groups. […]
The GF427-administered groups were administered once a day at five dose levels: 0.05×10^7 (lowest dose), 0.1×10^7 (low dose), 0.5×10^7 (middle dose), 1×10^7 (high dose), and 5×10^7 CFU (highest dose) per mouse. […] The animals were monitored daily for viability, clinical signs (lethargy, convulsion, respiratory distress), and behavior to observe whether there are any significant clinical signs of toxicity, coma, and death before and after administration of the test substance. […]

[6] = PO, QD, weeks 10 to 13, GF423 1×10^7 CFU, GF103 10 U, telmisartan 10 mg/kg, vs disease control group

SMILES: CCCc1nc2c(C)cc(-c3nc4ccccc4n3C)cc2n1Cc1ccc(-c2ccccc2C(=O)O)cc1 [telmisartan, Telmisartan]
- mean liver weight [1, 6]: significant decrease in mean liver weight
- mean liver-to-body weight ratio [1, 6]: tended to show a decrease in mean liver-to-body weight ratio
- daily mean body weight on the day of sacrifice ([1]; mouse, in vivo, po): significant decrease in daily mean body weight on the day of sacrifice
- NAFLD activity score (NAS) [2]: significant decrease in NAS
- plasma ALT level [3]: tended to show a decrease in plasma ALT level
- fibrosis area (Sirius red-positive area) [4]: tended to decrease
- mean body weight during the treatment period ([5]; weeks 10 to 13, GF427 0.05-5×10^7 CFU, GF103 10 U, vs disease control group): significantly lower than that of the disease control group from day 17 to day 21
- mice found dead or euthanized before day 21 ([5]; 8 mice per group): two of the eight mice were euthanized
